The record followed here is patent US20250230165A1, “HETEROCYCLIC COMPOUNDS FOR USE IN THE TREATMENT OF CANCER” (ARTIOS PHARMA LIMITED, priority 2021, published 2025).

SMILES strings stand for the structures.

The assay has as its target T1, Human Polθ polymerase domain (aa1820-2590) (Homo sapiens, UniProt O75417).
T1 construct: Human Polθ polymerase domain (aa1820-2590) was expressed in E. coli; made in house; host or cells: E. coli
T1 sequence (O75417 1820-2590): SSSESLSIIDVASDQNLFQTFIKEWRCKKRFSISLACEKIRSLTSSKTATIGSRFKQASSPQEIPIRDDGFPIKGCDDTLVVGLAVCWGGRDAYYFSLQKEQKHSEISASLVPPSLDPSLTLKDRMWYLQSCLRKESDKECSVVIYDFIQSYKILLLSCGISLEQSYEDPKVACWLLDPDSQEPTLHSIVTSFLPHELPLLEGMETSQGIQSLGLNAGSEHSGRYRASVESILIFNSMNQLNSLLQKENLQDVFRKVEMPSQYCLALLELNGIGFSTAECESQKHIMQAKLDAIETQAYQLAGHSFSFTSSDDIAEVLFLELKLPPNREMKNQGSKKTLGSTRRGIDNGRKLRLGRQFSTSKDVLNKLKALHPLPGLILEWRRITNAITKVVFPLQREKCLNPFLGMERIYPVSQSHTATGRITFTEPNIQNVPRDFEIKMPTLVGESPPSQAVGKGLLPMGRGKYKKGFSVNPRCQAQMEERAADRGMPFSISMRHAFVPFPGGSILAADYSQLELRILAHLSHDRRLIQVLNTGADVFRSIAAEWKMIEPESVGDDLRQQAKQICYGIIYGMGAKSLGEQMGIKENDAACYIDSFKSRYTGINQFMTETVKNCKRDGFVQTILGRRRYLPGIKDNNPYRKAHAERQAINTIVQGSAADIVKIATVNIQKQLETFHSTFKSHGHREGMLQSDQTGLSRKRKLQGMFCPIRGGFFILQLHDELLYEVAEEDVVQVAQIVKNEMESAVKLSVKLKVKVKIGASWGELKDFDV
Description: Polθ Polymerase Domain Kinact/KI Assay (PicoGreen). The format is biochemical. Particulars: 0.8 nM Polθ, 100 nM DNA substrate, kobs vs [I] fit for 2-step covalent inhibitor. The method in brief: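 Time-dependent inhibition was followed by quenching reactions with EDTA at points up to 60 min, then staining product DNA with PicoGreen fluorescence. Reactions held 0.8 nM E. coli-expressed Polθ, 100 nM primed DNA substrate and […] at pH 7.5, 1% DMSO. kobs versus inhibitor concentration gave Kinact and KI.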
In the case of `C=CC(=O)N1CCN(CCCN2C[C@H]3CC(=O)N(c4cc(C(F)(F)F)cc(C)n4)[C@@H]3C(=O)N(C)c3cccc(Cl)c32)CC1CC#N` (mixture of isomers) [Example 267a, 2-((S/R)-1-acryloyl-4-(3-((3aR,11aS)-6-chloro-10-methyl-1-(6-methyl-4-(trifluoromethyl)pyridin-2-yl)-2,11-dioxo-1,2,3,3a,4,10,11,11a-octahydro-5H-benzo[b]pyrrolo[2,3-f][1,4]diazocin-5-yl)propyl)piperazin-2-yl)acetonitrile], the Kinact/Kl stood at 1.24e+06 M⁻¹ s⁻¹.
The compound `C=CC(=O)N1Cc2ncc(CN3C[C@H]4CC(=O)N(c5cc(C(F)(F)F)cc(C)n5)[C@@H]4C(=O)N(C)c4cccc(Cl)c43)cc2[C@@H]1CC#N` (racemic) [Example 291b, 2-((S/R)-6-acryloyl-3-(((3aR,11aS)-6-chloro-10-methyl-1-(6-methyl-4-(trifluoromethyl)pyridin-2-yl)-2,11-dioxo-1,2,3,3a,4,10,11,11a-octahydro-5H-benzo[b]pyrrolo[2,3-f][1,4]diazocin-5-yl)methyl)-6,7-dihydro-5H-pyrrolo[3,4-b]pyridin-5-yl)acetonitrile] yielded a Kinact/Kl of 1.48e+06 M⁻¹ s⁻¹.
Regarding `C=CC(=O)N1Cc2nc(CN3C[C@H]4CC(=O)N(c5cc(C(F)(F)F)cc(C)n5)[C@@H]4C(=O)N(C)c4cccc(Cl)c43)ccc2[C@@H]1CC#N` (racemic) [Example 290a], the Kinact/Kl is 2.02e+06 M⁻¹ s⁻¹.
Then `C=CC(=O)N1CCOc2ccc(CN3C[C@H]4CC(=O)N(c5cc(C(F)(F)F)cc(C)n5)[C@@H]4C(=O)N(C)c4cccc(Cl)c43)cc21` [Example 250, (3aR,11aS)-5-((4-acryloyl-3,4-dihydro-2H-benzo[b][1,4]oxazin-6-yl)methyl)-6-chloro-10-methyl-1-(6-methyl-4-(trifluoromethyl)pyridin-2-yl)-1,3a,4,5,10,11a-hexahydro-2H-benzo[b]pyrrolo[2,3-f][1,4]diazocine-2,11(3H)-dione], with 530000 M⁻¹ s⁻¹; and `C=CC(=O)N1CCN(c2cc(N3C[C@H]4CC(=O)N(c5cc(C(F)(F)F)cc(C)n5)[C@@H]4C(=O)N(C)c4cccc(F)c43)ccn2)CC1` [Example 53, (3aR,11aS)-5-(2-(4-acryloylpiperazin-1-yl)pyridin-4-yl)-6-fluoro-10-methyl-1-(6-methyl-4-(trifluoromethyl)pyridin-2-yl)-1,3a,4,5,10,11a-hexahydro-2H-benzo[b]pyrrolo[2,3-f][1,4]diazocine-2,11(3H)-dione], with 24000 M⁻¹ s⁻¹; and `C=CC(=O)N1CC(n2cnc(CN3C[C@H]4CC(=O)N(c5cc(C(F)(F)F)cc(C)n5)[C@@H]4C(=O)N(C)c4cccc(Cl)c43)n2)C1` [Example 42, (3aR,11aS)-5-((1-(1-acryloylazetidin-3-yl)-1H-1,2,4-triazol-3-yl)methyl)-6-chloro-10-methyl-1-(6-methyl-4-(trifluoromethyl)pyridin-2-yl)-1,3a,4,5,10,11a-hexahydro-2H-benzo[b]pyrrolo[2,3-f][1,4]diazocine-2,11(3H)-dione], with 790000 M⁻¹ s⁻¹.
Turning to `C=CC(=O)N1CCN2CCN(C(=O)CN3C[C@H]4CC(=O)N(c5cc(C(F)(F)F)cc(C)n5)[C@@H]4C(=O)N(C)c4cccc(F)c43)CC2C1` (mixture of isomers) [Example 76b, (3aR,11aS)-5-(2-((S/R)-8-acryloyloctahydro-2H-pyrazino[1,2-a]pyrazin-2-yl)-2-oxoethyl)-6-fluoro-10-methyl-1-(6-methyl-4-(trifluoromethyl)pyridin-2-yl)-1,3a,4,5,10,11a-hexahydro-2H-benzo[b]pyrrolo[2,3-f][1,4]diazocine-2,11(3H)-dione], the Kinact/Kl amounted to 940000 M⁻¹ s⁻¹.
Regarding `C=CC(=O)N1CC(N2CC[C@@H](CN3C[C@H]4CC(=O)N(c5cc(C(F)(F)F)cc(C)n5)[C@@H]4C(=O)N(C)c4cccc(Cl)c43)[C@@H](C#N)C2)C1` (single isomer, unassigned) [Example 227b], the Kinact/Kl worked out at 1.07e+06 M⁻¹ s⁻¹.
Then `Cc1cc(C(F)(F)F)cc(N2C(=O)C[C@@H]3CN(Cc4cn5c(n4)CN(C(=O)CCl)C(C)C5)c4c(Cl)cccc4N(C)C(=O)[C@H]32)n1` (mixture of isomers) [Example 73b, (3aR,11aS)-6-chloro-5-(((S/R)-7-(2-chloroacetyl)-6-methyl-5,6,7,8-tetrahydroimidazo[1,2-a]pyrazin-2-yl)methyl)-10-methyl-1-(6-methyl-4-(trifluoromethyl)pyridin-2-yl)-1,3a,4,5,10,11a-hexahydro-2H-benzo[b]pyrrolo[2,3-f][1,4]diazocine-2,11(3H)-dione], with 790000 M⁻¹ s⁻¹; and `Cc1cc(C(F)(F)F)cc(N2C(=O)C[C@@H]3CN(CCOCC4(F)CN(C(=O)/C=C/CN(C)C)C4)c4c(Cl)cccc4N(C)C(=O)[C@H]32)n1` [Example 304, (3aR,11aS)-6-chloro-5-(2-((1-((E)-4-(dimethylamino)but-2-enoyl)-3-fluoroazetidin-3-yl)methoxy)ethyl)-10-methyl-1-(6-methyl-4-(trifluoromethyl)pyridin-2-yl)-1,3a,4,5,10,11a-hexahydro-2H-benzo[b]pyrrolo[2,3-f][1,4]diazocine-2,11(3H)-dione], with 1.87e+06 M⁻¹ s⁻¹.
On to `C=CC(=O)N1CC(c2nccc(CN3C[C@H]4CC(=O)N(c5cc(C(F)(F)F)cc(C)n5)[C@@H]4C(=O)N(C)c4cccc(F)c43)n2)C1` [Example 129, (3aR,11aS)-5-((2-(1-acryloylazetidin-3-yl)pyrimidin-4-yl)methyl)-6-fluoro-10-methyl-1-(6-methyl-4-(trifluoromethyl)pyridin-2-yl)-1,3a,4,5,10,11a-hexahydro-2H-benzo[b]pyrrolo[2,3-f][1,4]diazocine-2,11(3H)-dione], for which the Kinact/Kl is 400000 M⁻¹ s⁻¹.
`C=CC(=O)N1CC2(C1)NCCN(CCN1C[C@H]3CC(=O)N(c4cc(C(F)(F)F)cc(C)n4)[C@@H]3C(=O)N(C)c3cccc(F)c31)C2C` (single isomer, unassigned) [Example 34b] came in with a Kinact/Kl of 1.69e+06 M⁻¹ s⁻¹.
Then `C=CC(=O)N1Cc2cc(CN3C[C@H]4CC(=O)N(c5cc(C(F)(F)F)cc(C)n5)[C@@H]4C(=O)N(C)c4cccc(C)c43)cnc2[C@@H]1CC#N` (racemic) [Example 321a, 2-((S/R)-6-acryloyl-3-(((3aR,11aS)-6,10-dimethyl-1-(6-meth-yl-4-(trifluorometh-yl)pyridin-2-yl)-2,11-dioxo-1,2,3,3a, 4,10,11,11a-octa-hydro-5H-benzo[b]pyrrolo[2,3-f][1,4]diazocin-5-yl)meth-yl)-6,7-dihydro-5H-pyrrolo[3,4-b]pyr-idin-7-yl)acetonitrile], with 1.57e+06 M⁻¹ s⁻¹.
Compound `C=CC(=O)N1Cc2nc(CN3C[C@H]4CC(=O)N(c5cc(C(F)(F)F)cc(C)n5)[C@@H]4C(=O)N(C)c4cccc(C)c43)sc2C1` [Example 315, (3aR,11aS)-5-((5-acryloyl-5,6-di-hydro-4H-pyrrolo [3,4-d]thiazol-2-yl)-methyl)-6,10-dimeth-yl-1-(6-methyl-4-(trifluoromethyl)-pyridin-2-yl)-1,3a,4,5,10,11a-hexahydro-2H-benzo[b]pyrrolo [2,3-f][1,4]diazocine-2,11(3H)-dione] returned a Kinact/Kl of 1.79e+06 M⁻¹ s⁻¹.
In turn, `C=CC(=O)N1CCN2CCN(CCN3C[C@H]4CC(=O)N(c5cc(C(F)(F)F)cc(C)n5)[C@@H]4C(=O)N(C)c4cccc(F)c43)C[C@H]2C1` (racemic) [Example 23a, (3aR,11aS)-5-(2-((S/R)-8-acryloyloctahydro-2H-pyrazino[1,2-a]pyrazin-2-yl)ethyl)-6-fluoro-10-methyl-1-(6-methyl-4-(trifluoromethyl)pyridin-2-yl)-1,3a,4,5,10,11a-hexahydro-2H-benzo[b]pyrrolo[2,3-f][1,4]diazocine-2, 11(3H)-dione] registered a Kinact/Kl of 140000 M⁻¹ s⁻¹.
`C=CC(=O)N1CC(N2CCC[C@H](CN3C[C@H]4CC(=O)N(c5cc(C(F)(F)F)cc(C)n5)[C@@H]4C(=O)N(C)c4cccc(F)c43)C2)C1` (racemic) [Example 225b, (3aR,11aS)-5-(((S/R)-1-(1-acryloylazetidin-3-yl)piperidin-3-yl)methyl)-6-fluoro-10-methyl-1-(6-methyl-4-(trifluoromethyl)pyridin-2-yl)-1,3a,4,5,10,11a-hexahydro-2H-benzo[b] pyrrolo[2,3-f] [1,4]diazocine-2,11(3H)-dione]: the Kinact/Kl stood at 1.31e+06 M⁻¹ s⁻¹.
